Results as given in ChEMBL document CHEMBL4184091, “Microwave-assisted synthesis of novel 5-substituted benzylidene amino-2-butyl benzofuran-3-yl-4-methoxyphenyl methanones as antileishmanial and antioxidant agents” (Bioorg Med Chem Lett, 2018).
Converted amounts (≈) assume the structure as drawn.

Columns and labels:
[1] = tested on: Leishmania donovani; assay: Antileishmanial activity against promastigote form of Leishmania donovani NHOM/IN/80/DD8 assessed as decrease in cell viability after 72 hrs by MTT assay; type: functional, organism-based; settings: NHOM/IN/80/DD8, 72 h
[2] = Antioxidant activity assessed as DPPH radical scavenging activity after 20 to 30 mins; type: functional
[3] = tested on: Leishmania donovani; assay: Potency index, ratio of sodium stibogluconate IC50 to compound IC50 for promastigote form of Leishmania donovani NHOM/IN/80/DD8; type: functional

Structure (SMILES) | IC50 [1] | IC50 [2] | Ratio IC50 [3]
CCCCc1oc2ccc(/N=C/c3ccc(Cl)cc3)cc2c1C(=O)c1ccc(OC)cc1 | 372 µg/mL (≈ 834 µM) | 75.86 µg/mL (≈ 170 µM) | –
CCCCc1oc2ccc(/N=C/c3cccc([N+](=O)[O-])c3)cc2c1C(=O)c1ccc(OC)cc1 | 103 µg/mL (≈ 226 µM) | 34.16 µg/mL (≈ 74.8 µM) | –
CCCCc1oc2ccc(/N=C/c3ccc(OC)cc3OC)cc2c1C(=O)c1ccc(OC)cc1 | 52 µg/mL (≈ 110 µM) | 20.53 µg/mL (≈ 43.5 µM) | –
CCCCc1oc2ccc(/N=C/c3ccccc3)cc2c1C(=O)c1ccc(OC)cc1 | 279 µg/mL (≈ 677 µM) | 34.24 µg/mL (≈ 83.2 µM) | 2
CCCCc1oc2ccc(/N=C/c3ccc(F)cc3)cc2c1C(=O)c1ccc(OC)cc1 | 77.4 µg/mL (≈ 180 µM) | 100.3 µg/mL (≈ 234 µM) | –
CCCCc1oc2ccc(/N=C/c3ccc(OCC)c(OC)c3)cc2c1C(=O)c1ccc(OC)cc1 | 238 µg/mL (≈ 491 µM) | 14.78 µg/mL (≈ 30.4 µM) | –
CCCCc1oc2ccc(/N=C/c3ccc(Cl)cc3Cl)cc2c1C(=O)c1ccc(OC)cc1 | 124 µg/mL (≈ 258 µM) | 2.44 µg/mL (≈ 5.08 µM) | –
CCCCc1oc2ccc(/N=C/c3ccccc3O)cc2c1C(=O)c1ccc(OC)cc1 | 115 µg/mL (≈ 268 µM) | 99.43 µg/mL (≈ 233 µM) | 4
CCCCc1oc2ccc(/N=C/c3ccc(O)cc3)cc2c1C(=O)c1ccc(OC)cc1 | 144 µg/mL (≈ 337 µM) | 22.79 µg/mL (≈ 53.3 µM) | 4
CCCCc1oc2ccc(/N=C/c3ccc(CC)cc3)cc2c1C(=O)c1ccc(OC)cc1 | 59.3 µg/mL (≈ 135 µM) | 3.69 µg/mL (≈ 8.39 µM) | –
CCCCc1oc2ccc(/N=C/c3ccc(C#N)cc3)cc2c1C(=O)c1ccc(OC)cc1 | 101 µg/mL (≈ 231 µM) | 27.16 µg/mL (≈ 62.2 µM) | –
CCCCc1oc2ccc(/N=C/c3ccc(O)cc3O)cc2c1C(=O)c1ccc(OC)cc1 | 109 µg/mL (≈ 246 µM) | 7.55 µg/mL (≈ 17 µM) | 4
CCCCc1oc2ccc(/N=C/c3ccc([N+](=O)[O-])cc3)cc2c1C(=O)c1ccc(OC)cc1 | 56 µg/mL (≈ 123 µM) | 53.11 µg/mL (≈ 116 µM) | –
O=C1O[C@H]([C@@H](O)CO)C(O)=C1O [ASCORBIC ACID] | – | 3.31 µg/mL (≈ 18.8 µM) | –
N=C(N)c1ccc(OCCCCCOc2ccc(C(=N)N)cc2)cc1 [PENTAMIDINE] | 16.1 µg/mL (≈ 47.4 µM) | – | –
